Target: T1, hSCN9A (Homo sapiens, UniProt Q15858)
T1 construct: expressed in transfected cells
Assay: Whole-cell patch-clamp electrophysiology (conventional or PatchXpress), HEK cells expressing hSCN9A, estimated IC-50
Type: cell-based
Conditions: estimated IC-50, HEK cells expressing hSCN9A; class symbols or bounds; read-out: SCN9A EIC-50
Protocol: Human Embryonic Kidney (HEK) cells were transfected with hSCN3A or hSCN9A constructs using lipofectamine reagent (Invitrogen), using standard techniques. Cells stably expressing the hSCN3A or hSCN9A constructs were identified by their resistance to G-418 (400 μg/ml). Clones were screened for expression using the whole-cell voltage-clamp technique. HEK cells stably transfected with hSCN3A or hSCN9A were maintained in DMEM medium supplemented with 10% heat-inactivated fetal bovine serum and 400 μg/ml G418 sulfate in an incubator at 37° C. with a humidified atmosphere of 10% CO2. For HTS, cells were harvested from flasks by trypsinization and replated in an appropriate multi-well plate (typically 96 or 384 wells/plate) such that confluence would be achieved within 24 hours of plating. For electrophysiological studies, cells were removed from the culture flask by brief trypsinization and replated at low density onto glass cover slips. Cells were typically used for electrophysiological experiments within 24 to 72 h after plating. Cover slips containing HEK cells expressing hSCN3A or hSCN9A were placed in a bath on the stage of an inverted microscope and perfused (approximately 1 ml/min) with extracellular solution of the following composition: 138 mM NaCl, 2 mM CaCl2, 5.4 mM KCl, 1 mM MgCl2, 10 mM glucose, and 10 mM HEPES, pH 7.4, with NaOH. […] All recordings were made at room temperature (22-24° C.) using AXOPATCH 200B amplifiers and PCLAMP software (Axon Instruments, Burlingame, Calif.) or PatchXpress 7000 hardware and associated software (Axon Instruments, Burlingame, Calif.). hSCN3A or hSCN9A currents in HEK cells were measured using the whole-cell configuration of the patch-clamp technique (Hamill et al., 1981). […] As a result, voltage errors were negligible and no correction was applied. Current records were acquired at 20 to 50 KHz and filtered at 5 to 10 KHz. HEK cells stably transfected with hSCN3A or hSCN9A were viewed under Hoffman contrast optics and placed in front of an array of flow pipes emitting either control or compound-containing extracellular solutions. All compounds were dissolved in dimethyl sulfoxide to make 10 mM stock solutions, which were then diluted into extracellular solution to attain the final concentrations desired. […] The voltage-dependence of inactivation was determined by applying a series of depolarizing prepulses (8 sec long in 10 mV increments) from a negative holding potential. The voltage was then immediately stepped to 0 mV to assess the magnitude of the sodium current. Currents elicited at 0 mV were plotted as a function of prepulse potential to allow estimation of the voltage midpoint of inactivation (V1/2). Cells were then voltage clamped at the empirically determined V1/2. Compounds were tested for their ability to inhibit hSCN3A or hSCN9A sodium channels by activating the channel with a 20 msec voltage step to 0 mV following an 8 second conditioning prepulse to the empirically determined V1-2 (Table B). Compound effect (% inhibition) was determined by difference in current amplitude before and after application of test compounds. […] In some cases electrophysiological assays were conducted with PatchXpress 7000 hardware and associated software (Molecular Devices Corp) (Table B). All assay buffers and solutions were identical to those used in conventional whole-cell voltage clamp experiments described above. hSCN3A or hSCN9A containing cells were grown as above to 50%-80% confluency and harvested by trypsinization. Trypsinized cells were washed and resuspended in extracellular buffer at a concentration of 1×10^6 cells/ml. The onboard liquid handling facility of the PatchXpress was used for dispensing cells and application of test compounds. Determination of the voltage midpoint of inactivation was as described for conventional whole-cell recordings. Cells were then voltage-clamped to the empirically determined V1/2 and current was activated by a 20 msec voltage step to 0 mV.

T1 sequence (Q15858 whole entry): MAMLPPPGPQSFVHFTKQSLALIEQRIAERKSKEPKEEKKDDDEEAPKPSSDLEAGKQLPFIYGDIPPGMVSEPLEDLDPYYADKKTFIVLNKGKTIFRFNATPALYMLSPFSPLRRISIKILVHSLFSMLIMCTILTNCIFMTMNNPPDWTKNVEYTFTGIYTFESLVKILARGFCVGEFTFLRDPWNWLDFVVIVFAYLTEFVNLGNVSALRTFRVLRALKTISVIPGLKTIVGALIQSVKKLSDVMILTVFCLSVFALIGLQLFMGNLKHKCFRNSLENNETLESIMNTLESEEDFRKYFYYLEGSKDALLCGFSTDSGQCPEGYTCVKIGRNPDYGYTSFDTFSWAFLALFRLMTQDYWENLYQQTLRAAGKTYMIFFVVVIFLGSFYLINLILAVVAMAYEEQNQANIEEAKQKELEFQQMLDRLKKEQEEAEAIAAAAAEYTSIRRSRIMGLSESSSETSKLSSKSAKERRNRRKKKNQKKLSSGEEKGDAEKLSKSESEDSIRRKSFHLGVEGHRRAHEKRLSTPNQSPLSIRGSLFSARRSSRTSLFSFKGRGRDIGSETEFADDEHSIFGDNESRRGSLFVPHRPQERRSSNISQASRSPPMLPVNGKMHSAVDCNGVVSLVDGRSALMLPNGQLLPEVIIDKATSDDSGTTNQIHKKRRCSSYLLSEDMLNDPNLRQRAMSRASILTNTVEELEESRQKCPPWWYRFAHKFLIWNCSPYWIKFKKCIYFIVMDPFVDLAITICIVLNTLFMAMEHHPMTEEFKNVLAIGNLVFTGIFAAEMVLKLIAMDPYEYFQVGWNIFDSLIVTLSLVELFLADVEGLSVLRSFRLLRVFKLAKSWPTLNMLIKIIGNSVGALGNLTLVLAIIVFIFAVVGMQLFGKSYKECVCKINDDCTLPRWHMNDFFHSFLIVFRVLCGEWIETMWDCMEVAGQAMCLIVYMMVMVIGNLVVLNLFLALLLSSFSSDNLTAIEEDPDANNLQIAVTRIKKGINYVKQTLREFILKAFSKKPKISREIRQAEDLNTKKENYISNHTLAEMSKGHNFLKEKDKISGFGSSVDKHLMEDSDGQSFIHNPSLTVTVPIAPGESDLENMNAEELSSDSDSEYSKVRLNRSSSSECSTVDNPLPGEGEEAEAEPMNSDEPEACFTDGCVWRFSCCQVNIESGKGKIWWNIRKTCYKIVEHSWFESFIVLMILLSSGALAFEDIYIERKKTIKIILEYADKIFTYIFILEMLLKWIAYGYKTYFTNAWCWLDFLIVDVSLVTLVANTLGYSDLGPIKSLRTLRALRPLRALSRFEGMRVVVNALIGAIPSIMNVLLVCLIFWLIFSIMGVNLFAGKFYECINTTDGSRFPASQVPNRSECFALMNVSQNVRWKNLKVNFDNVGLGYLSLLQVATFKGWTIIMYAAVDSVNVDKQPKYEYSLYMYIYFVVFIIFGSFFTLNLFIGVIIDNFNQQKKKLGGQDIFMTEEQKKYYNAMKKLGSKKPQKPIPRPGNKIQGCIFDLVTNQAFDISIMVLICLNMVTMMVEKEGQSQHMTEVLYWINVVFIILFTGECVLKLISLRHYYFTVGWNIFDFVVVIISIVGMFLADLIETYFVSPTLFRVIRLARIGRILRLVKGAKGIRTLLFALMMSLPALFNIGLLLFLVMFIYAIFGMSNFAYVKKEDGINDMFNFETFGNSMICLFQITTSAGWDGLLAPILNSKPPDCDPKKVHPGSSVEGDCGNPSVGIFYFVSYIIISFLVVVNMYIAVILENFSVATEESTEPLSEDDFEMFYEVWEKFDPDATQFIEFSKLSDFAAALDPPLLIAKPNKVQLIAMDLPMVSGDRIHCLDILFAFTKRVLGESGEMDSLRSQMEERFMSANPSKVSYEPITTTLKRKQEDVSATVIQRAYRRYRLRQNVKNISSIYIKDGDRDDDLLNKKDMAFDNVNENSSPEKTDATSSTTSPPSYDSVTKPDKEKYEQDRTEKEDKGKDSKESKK

SMILES | IC50 [nM]
Cc1cc(Nc2ccc(S(=O)(=O)Nc3nccs3)c(F)c2)n(C(C)C2CC2)n1 (stereo not shown) [Compound 175, 4-(1-(1-cyclopropylethyl)-3-methyl-1H-pyrazol-5-ylamino)-2-fluoro-N-(thiazol-2-yl)benzenesulfonamide] | < 2000
CC(C)(C)c1csc(Nc2ccc(S(=O)(=O)Nc3nccs3)nc2)n1 [Compound 116, 5-(4-tert-butylthiazol-2-ylamino)-N-(thiazol-2-yl)pyridine-2-sulfonamide] | > 1000
O=S(=O)(Nc1cccnn1)c1ccc(Nc2ccn(Cc3ccc(Cl)cc3)n2)cc1F [Compound 260, 4-(1-(4-chlorobenzyl)-1H-pyrazol-3-ylamino)-2-fluoro-N-(pyridazin-3-yl)benzenesulfonamide] | > 1000
Cc1nnc(NS(=O)(=O)c2ccc(Nc3ccn(Cc4ccc(Cl)cc4)n3)cc2F)s1 [Compound 251, 4-(1-(4-chlorobenzyl)-1H-pyrazol-3-ylamino)-2-fluoro-N-(5-methyl-1,3,4-thiadiazol-2-yl)benzenesulfonamide] | > 1000
Cc1cc(Nc2ccc(S(=O)(=O)Nc3nnc(C(F)F)s3)c(F)c2)n(-c2ccccc2)n1 [Compound 248, N-(5-(difluoromethyl)-1,3,4-thiadiazol-2-yl)-2-fluoro-4-(3-methyl-1-phenyl-1H-pyrazol-5-ylamino)benzenesulfonamide] | 2000 to 10000
O=S(=O)(Nc1nccs1)c1ccc(Nc2ccn(Cc3ccc(Cl)cc3)n2)cc1C(F)(F)F [Compound 212, 4-(1-(4-chlorobenzyl)-1H-pyrazol-3-ylamino)-N-(thiazol-2-yl)-2-(trifluoromethyl)benzenesulfonamide] | 2000 to 10000
O=S(=O)(Nc1nccs1)c1ccc2c(cnn2CCCCc2ccccc2)c1 [Compound 278, 1-(4-phenylbutyl)-N-(thiazol-2-yl)-1H-indazole-5-sulfonamide] | < 2000
Cc1cc(Nc2ccc(S(=O)(=O)Nc3nnc(C)s3)c(F)c2)n(-c2ccccc2)n1 [Compound 247, 2-fluoro-N-(5-methyl-1,3,4-thiadiazol-2-yl)-4-(3-methyl-1-phenyl-1H-pyrazol-5-ylamino)benzenesulfonamide] | > 1000
Cc1cc(Nc2ccc(S(=O)(=O)Nc3nccs3)nc2)n(-c2ccccc2)n1 [Compound 234, 5-(3-methyl-1-phenyl-1H-pyrazol-5-ylamino)-N-(thiazol-2-yl)pyridine-2-sulfonamide] | 2000 to 10000
O=S(=O)(Nc1nccs1)c1ccc(Nc2c3c(nn2-c2ccccc2)CCC3)cc1F [Compound 174, 2-fluoro-4-(2-phenyl-2,4,5,6-tetrahydrocyclopenta[c]pyrazol-3-ylamino)-N-(thiazol-2-yl)benzenesulfonamide] | < 2000
CC1(C)CC(=O)c2sc(Nc3ccc(S(=O)(=O)Nc4nccs4)cc3)nc2C1 [Compound 136, 4-(5,5-dimethyl-7-oxo-4,5,6,7-tetrahydrobenzo[d]thiazol-2-ylamino)-N-(thiazol-2-yl)benzenesulfonamide] | > 1000
O=S(=O)(Nc1nnc(C(F)(F)F)s1)c1ccc(Nc2ccn(Cc3ccc(Cl)cc3)n2)cc1F [Compound 243, 4-(1-(4-chlorobenzyl)-1H-pyrazol-3-ylamino)-2-fluoro-N-(5-(trifluoromethyl)-1,3,4-thiadiazol-2-yl)benzenesulfonamide] | 2000 to 10000
O=S(=O)(Nc1nnc(C2CC2)s1)c1ccc(Nc2ccn(Cc3ccc(Cl)cc3)n2)cc1F [Compound 253, 4-(1-(4-chlorobenzyl)-1H-pyrazol-3-ylamino)-N-(5-cyclopropyl-1,3,4-thiadiazol-2-yl)-2-fluorobenzenesulfonamide] | > 1000
Cc1cc(Nc2ccc(S(=O)(=O)Nc3nccs3)c(F)c2)n(C2CCN(C)CC2)n1 [Compound 202, 2-fluoro-4-(3-methyl-1-(1-methylpiperidin-4-yl)-1H-pyrazol-5-ylamino)-N-(thiazol-2-yl)benzenesulfonamide] | 2000 to 10000
Cn1ncc(-c2ccccc2)c1Nc1ccc(S(=O)(=O)Nc2nccs2)c(F)c1 [Compound 148, 2-fluoro-4-(1-methyl-4-phenyl-1H-pyrazol-5-ylamino)-N-(thiazol-2-yl)benzenesulfonamide] | 2000 to 10000

Further lines, results first:

IC50 [nM] | SMILES
< 2000 | Cn1nc(Cc2cccc(Cl)c2)cc1Nc1ccc(S(=O)(=O)Nc2nccs2)cc1F [Compound 219, 4-(3-(3-chlorobenzyl)-1-methyl-1H-pyrazol-5-ylamino)-3-fluoro-N-(thiazol-2-yl)benzenesulfonamide]
< 2000 | Cn1nc(Cc2ccc(Cl)c(F)c2)cc1Nc1ccc(S(=O)(=O)Nc2nccs2)cc1F [Compound 209, 4-(3-(4-chloro-3-fluorobenzyl)-1-methyl-1H-pyrazol-5-ylamino)-3-fluoro-N-(thiazol-2-yl)benzenesulfonamide]
< 2000 | O=S(=O)(Nc1nccs1)c1ccc(Nc2ccn(Cc3ccc(F)cc3)n2)cc1F [Compound 217, 2-fluoro-4-(1-(4-fluorobenzyl)-1H-pyrazol-3-ylamino)-N-(thiazol-2-yl)benzenesulfonamide]
< 2000 | O=S(=O)(Nc1nccs1)c1ccc(Nc2ncn(Cc3cccc(C(F)(F)F)c3)n2)c(F)c1 [Compound 200, 3-fluoro-N-(thiazol-2-yl)-4-(1-(3-(trifluoromethyl)benzyl)-1H-1,2,4-triazol-3-ylamino)benzenesulfonamide]
> 1000 | O=S(=O)(Nc1nccs1)c1ccc(Nc2nnc(Cc3ccc(Cl)cc3)o2)cc1 [Compound 118, 4-(5-(4-chlorobenzyl)-1,3,4-oxadiazol-2-ylamino)-N-(thiazol-2-yl)benzenesulfonamide]
2000 to 10000 | O=S(=O)(Nc1nccs1)c1ccc2nn(Cc3ccc(OC(F)(F)F)cc3)cc2c1 [Compound 275, N-(thiazol-2-yl)-2-(4-(trifluoromethoxy)benzyl)-2H-indazole-5-sulfonamide]
< 2000 | Cn1nc(Cc2ccc(Cl)cc2)cc1Nc1ccc(S(=O)(=O)Nc2nccs2)cc1F [Compound 143, 4-(3-(4-chlorobenzyl)-1-methyl-1H-pyrazol-5-ylamino)-3-fluoro-N-(thiazol-2-yl)benzenesulfonamide]
< 2000 | O=S(=O)(Nc1nccs1)c1ccc(Nc2ncn(Cc3ccccc3Cl)n2)c(F)c1 [Compound 208, 4-(1-(2-chlorobenzyl)-1H-1,2,4-triazol-3-ylamino)-3-fluoro-N-(thiazol-2-yl)benzenesulfonamide]
< 2000 | Cc1ccc(Cc2cc(Nc3ccc(S(=O)(=O)Nc4nccs4)c(F)c3)n(C)n2)cc1 [Compound 159, 2-fluoro-4-(1-methyl-3-(4-methylbenzyl)-1H-pyrazol-5-ylamino)-N-(thiazol-2-yl)benzenesulfonamide]
< 2000 | Cn1nc(Cc2ccc(Cl)c(F)c2)cc1Nc1ccc(S(=O)(=O)Nc2nccs2)cc1 [Compound 196, 4-(3-(4-chloro-3-fluorobenzyl)-1-methyl-1H-pyrazol-5-ylamino)-N-(thiazol-2-yl)benzenesulfonamide]
< 2000 | Cc1ccc(Cc2cc(Nc3ccc(S(=O)(=O)Nc4nccs4)c(F)c3)[nH]n2)cc1 [Compound 165, 2-fluoro-4-(3-(4-methylbenzyl)-1H-pyrazol-5-ylamino)-N-(thiazol-2-yl)benzenesulfonamide]
< 2000 | Cc1cc(Nc2ccc(S(=O)(=O)Nc3nccs3)c(F)c2)n(-c2c(F)cccc2F)n1 [Compound 190, 4-(1-(2,6-difluorophenyl)-3-methyl-1H-pyrazol-5-ylamino)-2-fluoro-N-(thiazol-2-yl)benzenesulfonamide]
< 2000 | O=S(=O)(Nc1nccs1)c1ccc(Nc2ccn(Cc3ccc(F)cc3)n2)c(F)c1 [Compound 226, 3-fluoro-4-(1-(4-fluorobenzyl)-1H-pyrazol-3-ylamino)-N-(thiazol-2-yl)benzenesulfonamide]

— US8124610B2, “Sodium channel inhibitors” (Icagen Inc., priority 2007, dated 2012)
